Source: ChEMBL document CHEMBL4699506, “Polyhalogenation of Isoflavonoids by the Termite-Associated Actinomadura sp. RB99” (2020)

What was measured:
Type in all cases: functional
Candida albicans = experiment: Antifungal activity against Candida albicans assessed as reduction in […] by two-fold serial dilution method
[1] = test system: Staphylococcus epidermidis; experiment: Antibacterial activity against Staphylococcus epidermidis assessed as reduction in bacterial growth after 24 hrs by two-fold serial dilution method
Escherichia coli = experiment: Antibacterial activity against Escherichia coli assessed as reduction in bacterial growth after 24 hrs by two-fold serial dilution method
Helicobacter pylori = experiment: Antibacterial activity against Helicobacter pylori 51 assessed as reduction in microbial growth after 24 hrs by two-fold serial dilution method

Compound	MIC (Candida albicans) [µg/mL]	MIC [1] [µg/mL]	MIC (Escherichia coli) [µg/mL]	MIC (Helicobacter pylori) [µg/mL]	MIC50 (Helicobacter pylori) [µg/mL]
O=c1c(-c2cc(Cl)c(O)c(Cl)c2)coc2cc(O)ccc12	> 50	> 50	> 50	–	–
COc1cc2occ(-c3cc(Cl)c(O)c(Cl)c3)c(=O)c2cc1OC	> 50	> 50	> 50	–	–
Cc1ncc([N+](=O)[O-])n1CCO [METRONIDAZOLE]	–	–	–	4.3	11.8
O=c1c(-c2cc(Br)c(O)c(Br)c2)coc2c(Br)c(O)c(Br)c(O)c12	–	–	–	58.1	14.5
COc1cc2c(=O)c(-c3cc(Cl)c(O)c(Cl)c3)coc2cc1O	> 50	> 50	> 50	–	–
O=c1c(-c2cc(Br)c(O)c(Br)c2)coc2c(Br)c(O)ccc12	–	–	–	35.1	6.9

The next lines start with the values.

MIC (Candida albicans) [µg/mL]	MIC [1] [µg/mL]	MIC (Escherichia coli) [µg/mL]	MIC (Helicobacter pylori) [µg/mL]	MIC50 (Helicobacter pylori) [µg/mL]	Compound
> 50	> 50	> 50	–	–	O=c1c(-c2ccc(O)cc2)coc2c(Cl)c(O)c(Cl)c(O)c12
> 50	> 50	> 50	–	–	O=c1c(-c2cc(Cl)c(O)c(Cl)c2)coc2c(Cl)c(O)c(Cl)c(O)c12
> 50	> 50	> 50	–	–	O=c1c(-c2cc(Cl)c(O)c(Cl)c2)coc2c(Cl)c(O)c(Cl)cc12
> 50	> 50	> 50	–	–	O=c1c(-c2ccc(O)cc2)coc2c(Cl)c(O)c(O)c(Cl)c12
> 50	> 50	> 50	–	–	COc1cc2c(=O)c(-c3cc(Cl)c(O)c(Cl)c3)coc2c(Cl)c1O
